Structure (SMILES): CCOc1cc([C@@H](CS(C)(=O)=O)N2Cc3cccc(N)c3C2=O)ccc1OC [Example 5.5, 7-amino-2-[(1S)-1-(3-ethoxy-4-methoxy-phenyl)-2-methanesulfonyl-ethyl]-2,3-dihydro-isoindol-1-one]
- melting point: 135 to 137 °C

Source: patent US8716252B2, “(Methylsulfonyl) ethyl benzene isoindoline derivatives and their pharmaceutical uses” (Celgene Corporation, priority 2009, dated 2014)
